# Data taken from patent US20010049389A1, “Arthropod-controlling composition” (priority 2000, published 2001).
# How the values were obtained:
# Format in all cases: in vivo
# [1] = tested on: adult houseflies (Musca domestica); experiment: Test Example 1: oil solution spray in glass chamber, knock-down of houseflies; details: 0.7 ml of 0.5% oil solution (Preparation example 9) sprayed in 0.34 m^3 glass chamber
# Protocol: Ten (5 males and 5 females) adult houseflies (Musca domestica) were released in a glass chamber (70 cm cube, capacity: 0.34 m^3). Seven-tenth milliliter (0.7 ml) of the oil solution obtained in Preparation example 9 was applied into the chamber with a spray gun at a pressure of 0.9 kg/cm^2. Fifteen minutes after spraying, the knocked-down houseflies were counted. Reference compound was also tested.
# [2] = tested on: adult German cockroaches (Blattella germanica); experiment: Test Example 4: smoking formulation in 28 m^3 chamber, German cockroaches; details: 10 g smoking (Preparation example 25) in 28 m^3 chamber
# Description: In a test chamber of 3 m×4 m and 2.3 m in height (28 m^3), two plastic cups were put at two corners, wherein each cup has ten (5 males and 5 females) adult German cockroaches (Blattella germanica) therein. Ten grams (10 g) of the smoking obtained in Preparation example 25 and 50g of magnesium oxide were charged into each of the cells in an aluminum container having an aluminum wall. The cell charged magnesium oxide has small holes. The aluminum container was dipped into water in the plastic container set in the test chamber. The smoking was heated to release the vaporized active ingredient by the reaction heats of magnesium oxide with water. After 2 hours, knock-down percentage was observed. Further, the cockroaches were transferred to a clean plastic cup and given foods and water. The mortality was observed after 7 days.
# [3] = tested on: adult German cockroaches (Blattella germanica); experiment: Test Example 5: heating fumigant (ceramic plate) in 5.8 m^3 chamber, German cockroaches; details: heating fumigant (Preparation example 24, 500 mg) at about 200° C. in 5.8 m^3 chamber
# Protocol: (§1) On the bottom of a cubic chamber having 1.8 m of side (5.8 m^3), the heating fumigant (ceramic plate) obtained in Preparation example 24 with an electric heater was set in the center. Two plastic cups were put at two corners in the chamber, wherein each cup has ten (5 males and 5 females) adult German cockroaches (Blattella germanica) therein. Two hours after turning on an electric current, the ceramic plate was heated to about 200° C. (200±5° C.) and the active ingredient was vaporized. The heating temperature was estimated by measuring a surface temperature of the ceramic plate with radiation pyrometer (TR-0506C produced by Minolta Company) in advance. Then, the knocked-down cockroaches were counted and the knock-down percentage was calculated. Further, the cockroaches were transferred to a clean plastic cup and given foods and water. The mortality was observed after 7 days.
# [4] = tested on: adult American cockroaches (Periplaneta americana); experiment: Test Example 5: heating fumigant (ceramic plate) in 5.8 m^3 chamber, American cockroaches; details: heating fumigant (Preparation example 24, 500 mg) at about 200° C. in 5.8 m^3 chamber
# Protocol: as §1
# Furthermore, the same tests were performed except that six (3 males and 3 females) adult smokybrown cockroaches (Periplaneta fuliginosa) and six (3 males and 3 females) adult American cockroaches (Periplaneta americana) were used in place of ten German cockroaches.
# [5] = tested on: female adult common mosquitoes (Culex pipiens pallens); experiment: Test Example 6: mosquito-coil in 0.34 m^3 chamber, knock-down of common mosquitoes; details: 1% mosquito-coil (Preparation example 18) burnt in 0.34 m^3 chamber, after 15 minutes
# Protocol: On the bottom center of a cubic chamber having 70 cm of side (0.34 m^3), the mosquito-coil obtained in Preparation example 18 was set in a mosquito-coil holder. The mosquito-coil was ignited and the air in the chamber was stirred with a battery-type small electric fun. After that, the mosquito-coil and the electric fun were taken out and twenty female adult common mosquitoes (Culex pipiens pallens) were released into the chamber. After 15 minutes, the knock-down percentage was observed. Reference compound was also tested.
# [6] = tested on: cat flea (Ctenocephalides felis) eggs; experiment: Test Example 8: treated filter paper, hatching of cat flea eggs
# Protocol: A designated amount of the Pyrone Compound was dissolved in acetone to give a 0.2 ml solution, which was uniformly treated on a filter paper having 3.8 cm in diameter, and air-dried for one hour. The filter paper was set on an aluminum plate of 4 cm in diameter. Twenty cat flea (Ctenocephalides felis) eggs were put on the filter paper and the plate was kept at 25±3° C. and 70-90% of humidity in a plastic Petri dish. After 7 days, the hatching was observed. The tests were repeated three times and the results are given in […]
# [7] = tested on: adult American house dust mites (Dermatophagoides farinae); experiment: Test Example 10: treated drawing paper, American house dust mites; details: drawing paper 800 mg/m^2, 25° C., 65% humidity, 24 hours
# Protocol: On a black drawing paper having 38 mm in diameter, 0.2 ml of an acetone solution of the Pyrone Compound was added dropwise and air-dried. The treated dosage was 800 mg/m^2. The drawing paper was set on an aluminum plate having 38 mm in diameter and adhesives were put on the edge to prevent for tested mites to escape. About 30 adult American house dust mites (Dermatophagoides farinae) were released on the drawing paper and kept at 25° C. and 65% of humidity for 24 hours. After that, the mortality was observed. The result was 100%.
# [8] = tested on: cotton aphids (Aphis gossypii); experiment: Test Example 15: foliar spray on cucumber, cotton aphids; details: 500 ppm dilution of flowable (Preparation example 7), 30 ml sprayed, after 6 days
# Protocol: About 30 cotton aphids (Aphis gossypii) were put on a cucumber leaf (in first-leaf stage) grown in a 90 ml plastic cup.
# (§2) Next day, the formulation obtained in Preparation example 7 was diluted with water containing a spreading agent (Tokurino produced by Nihon Nohyaku Co.) to make the concentration of the Pyrone Compound to 500 ppm. Thirty milliliters (30 ml) of the dilution were sprayed to the cucumber and air-dried. The plastic pot was put in a container and allowed to stand at 22±2° C. in a greenhouse. After 6 days, the mortality was 90% or more.
# [9] = tested on: whiteflies (Bemisia argentifolii); experiment: Test Example 16: foliar spray on cabbage, whiteflies; details: 500 ppm dilution of flowable (Preparation example 7), 30 ml sprayed, after 6 days
# Protocol: About 50 whiteflies (Bemisia argentifolii) were put on a cabagge leaf (in first-leaf stage) grown in a 90 ml plastic cup.
# as §2, with “The” for “Next day, the”, “cabbage (in first-leaf stage)” for “cucumber”, “was” for “was put in a container and”, “25±2°” for “22±2°”
# [10] = tested on: adult German cockroaches (Blattella germanica); experiment: Test Example 21: total-release aerosol in 28 m^3 chamber, German cockroaches; details: total-release aerosol (Preparation example 16) in 28 m^3 chamber, after 2 hours
# Protocol: In a test chamber of 3 m×4 m and 2.3 m in height (28 m^3), two plastic cups were put at two corners, wherein each cup has ten (5 males and 5 females) adult German cockroaches (Blattella germanica) therein. The formulation obtained in Preparation example 16 was set in the center of the bottom and the contents of the aerosol were totally released. After 2 hours, the knock-down percentage was 100%.
smiles,measurement,setting,value
Cc1cc(O)c(C(=O)CC(C)C)c(=O)o1 [The Pyrone Compound],Knock-down percentage (%) 15 min. after spraying,[1],95%
same,Knock-down percentage (%),[2]; after 2 hours,100%
same,Mortality (%),[2]; after 7 days,100%
same,Mortality (%),[3]; after 7 days,100%
same,Knock-down percentage (%),[3]; two hours,100%
same,Mortality (%),[4]; after 7 days,67%
same,Knock-down percentage (%),[4]; two hours,100%
same,Knock-down percentage (%),[5],98%
same,Hatching ratio (%),"[6]; dosage 5 mg/m^2, after 7 days",1.7%
same,Hatching ratio (%),"[6]; dosage 25 mg/m^2, after 7 days",0%
same,Hatching ratio (%),"[6]; dosage 125 mg/m^2, after 7 days",0%
same,mortality,[7],100%
same,mortality,[8],≥ 90%
same,mortality,[9],≥ 90%
same,knock-down percentage,[10],100%
